Assay results reported in patent US7642400B2, “Protein kinase C iota” (Mayo Foundation for Medical Education and Research, priority 2004, dated 2010).

Experiments:
[1] = molecular target: T1, interaction of PKCι polypeptides with PAR6 polypeptides (Homo sapiens, UniProt P41743); assay: Primary screen: FRET assay of PKCι113-YFP-N1 (PYN) and PAR6125-CFP-C1; conditions: FIG. 18; less binding as concentration increased
T1 construct: amino acids 1-113 or a full-length PKCι polypeptide; 6xHis; made in house
T1 sequence (P41743 10-122): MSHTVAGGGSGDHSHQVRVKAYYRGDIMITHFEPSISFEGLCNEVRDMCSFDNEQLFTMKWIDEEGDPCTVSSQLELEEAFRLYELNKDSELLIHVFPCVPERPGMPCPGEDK
Method: A primary screen was performed as follows to identify test compound having the potential to inhibit the interaction of PKCι polypeptides with PAR6 polypeptides. Bacterially expressed PKCι113-YFP-N1 (PYN) was isolated from the soluble fraction of bacterial lysates by affinity purification according to the manufacturer's protocol (B-PER 6×His Purification Kit; Pierce). The purified polypeptide was dialyzed against Tris buffer (50 mM Tris, pH 8.0; 135 mM NaCl; 10% glycerol; 0.002% EDTA) containing 2 M urea. PAR6125-CFP-C1 recombinant polypeptide was isolated from the inclusion body pellets of bacterial lysates using the B-PER reagent (Pierce) according to the manufacturer's protocol. […] Yields were measured by fluorescence in a SpectraMax Gemini microplate reader (Molecular Devices).
To perform the assay, PYN was diluted to 4000 relative fluorescent units/50 μl in Tris buffer plus 1 M urea, and PAR6125-CFP-C1 was diluted to 400 relative fluorescent units/50 μl Tris buffer plus 1 M urea. […] Fluorescence was measured in a SpectraMax Gemini plate reader. Cyan fluorescence was measured at excitation 395 nm, emission 475 nm, and cutoff of 455 nm. Yellow fluorescence was measured at excitation 395 nm, emission 529, and cutoff of 515=n. […]

[2] = molecular target: T1, interaction of PKCι polypeptides with PAR6 polypeptides; assay: Secondary screen: PYN bound to plate-immobilised biotin-tagged PAR6; format: binding; conditions: for dose-response analysis using the secondary screening assay: increasing amounts, e.g. 0, 0.1, 1, 10, 100, and 100 μM; for Secondary Screen: amount of PYN bound to biotin-tagged PAR6 plates
Method: Multiple test compounds that were classified as hits in the primary screen as well as additional related compounds were evaluated in a secondary screen designed as follows. Briefly, a 96-well microtiter plate coated with streptavidin (Nunc #436014) was incubated for 2-4 hours at room temperature with 100 μl of a 20-30 μg/ml solution of biotin-tagged PAR6 (whole polypeptide) in phosphate-buffered saline containing Tween-20 (PBST). Plates were washed twice with PBST, then once with incubation buffer (50 mM Tris, pH 8.0; 135 mM NaCl; 10% glycerol; 0.002% EDTA). Incubation buffer (50 μl) was added to each well. The compounds to be tested were added (10 μl) followed by PYN (50 μl) diluted in incubation buffer to an approximate concentration of 4000-5000 relative fluorescent units per 50 μl. Plates were incubated overnight at 4° C. Plates were washed twice with incubation buffer, after which 50 μl incubation buffer was added to retain moisture in the wells. The amount of PYN bound on the plates was determined by measuring yellow fluorescence (532/526) in a Typhoon imager. Fluorescence was quantitated by Softmax Pro software.
A dose-response analysis was performed using the secondary screening assay and increasing amounts (e.g., 0, 0.1, 1, 10, 100, and […]) of gossypol, hexestrol, thimerosal, ebselen, ATG, ATM, ellagic acid, cisplatin, apomorphine, or phenylmercuric acetate.

Molecule	Secondary Screen [2]	further results
O=C(O)CC([S-])C(=O)O.[Au+] (centres unmarked) [ATM, aurothiomaleate]	–	dose-response in the FRET assay: relative binding of PKCι and PAR6 polypeptides [1]: dose-dependent effect; dose-response analysis using the secondary screening assay [2]: dose-dependent response was detected
Nc1ccc(/N=N/c2ccccc2)c(N)n1 [Phenazopyridine]	No effect	–
CC(=O)[O-].[Hg+][c]1ccccc1 [Phenylmercuric acetate]	–	Secondary Screen ([2]; acetate): Confirmed; Secondary Screen ([2]; listed as phenylmercuric acetate, acetate): confirmed; dose-response analysis using the secondary screening assay [2]: dose-dependent response was detected
COc1cc(NC(C)CCCN)c2ncccc2c1 (centres unmarked) [Primaquine phosphate]	No effect	–
CC(C)[N+](C)(CCOC(=O)C1c2ccccc2Oc2ccccc21)C(C)C [Propantheline bromide]	No effect	–
O=C1C=CC(=C(c2ccc(O)cc2)c2ccc(O)cc2)C=C1 [Rosolic acid]	No effect	–
CC1=C(CC(=O)O)c2cc(F)ccc2/C1=C\c1ccc([S+](C)[O-])cc1 (centres unmarked) [Sulindac]	No effect	–
C[CH2][Hg][S]c1ccccc1C(=O)[O-].[Na+] [Thimerosal]	Confirmed	Secondary Screen ([2]; listed as thimerosal): confirmed; dose-response analysis using the secondary screening assay [2]: dose-dependent response was detected
CC1=C(/C=C/C(C)=C/C=C/C(C)=C/C(=O)O)C(C)(C)CCC1 [Tretinon]	No effect	–
CN(C)CCCN1c2ccccc2Sc2ccc(C(F)(F)F)cc21 [Triflupromazine]	No effect	–
C[C@]12CC[C@@H]3c4ccc(O)cc4CC[C@H]3[C@@H]1CC[C@@H]2O [b-estradiol]	had no effect)	–
CCn1cc(C(=O)O)c(=O)c2cc(F)c(N3CCNCC3)nc21 [enoxacin]	lomefloxacin had no effect)	–
Antimycin A	No effect	–
Veratrine sulfate	No effect	–

The next lines start with results.

Secondary Screen [2]	Molecule	further results
Confirmed	CN1CCCN=C1/C=C/c1cccs1 [Pyrantel pamoate]	Secondary Screen ([2]; listed as pyrantel pamoate): confirmed
had no effect)	CC1=C(C(=O)O)N2C(=O)[C@@H](NC(=O)[C@H](N)c3ccc(O)cc3)[C@H]2SC1 [cefadroxil]	–
No effect	[H]/N=C(\N/C(=N/[H])NCCCCCCNC(=N)NC(=N)Nc1ccc(Cl)cc1)Nc1ccc(Cl)cc1 [chlorhexidine]	–
droperidol had no effect)	O=C(CCCN1CC=C(n2c(=O)[nH]c3ccccc32)CC1)c1ccc(F)cc1 [droperidol]	–
hespiridin had no effect)	COc1ccc([C@@H]2CC(=O)c3c(O)cc(O[C@@H]4O[C@H](CO[C@@H]5O[C@@H](C)[C@H](O)[C@@H](O)[C@H]5O)[C@@H](O)[C@H](O)[C@H]4O)cc3O2)cc1O [hespiridin]	–
hexestrol was confirmed)	CC[C@H](c1ccc(O)cc1)[C@@H](CC)c1ccc(O)cc1 [hexestrol]	dose-response analysis using the secondary screening assay [2]: dose-dependent response was detected
lomefloxacin had no effect)	CCn1cc(C(=O)O)c(=O)c2cc(F)c(N3CCNC(C)C3)c(F)c21 (centres unmarked) [lomefloxacin]	–
No effect	Benzalkonium chloride	–
